A short description of series [1]: Stability of compounds assessed by RP-HPLC. The series is classed as physicochemical. Conditions: 37° C., one week, RP-HPLC. The method, then:
(§1) RP-HPLC was performed using a Gilson 321 pump with a C18 column (Jupiter 300 Å, Phenomenex) with a Widepore C18 guard column (Phenomenex). Samples (1 ml) were injected through a 0.22 μm PVDF filter (Millex, Millipore). HPLC buffer A [0.1% TFA in water] and HPLC buffer B (90% acetonitrile and 0.1% TFA) were used and a gradient was run at 1 ml/min at room temperature as follows: 0-2 min—5% B; 2-17 min—5-100% B; 17-19 min—100% B; 19-22 min—100-5% B. Peaks were detected by absorbance at 220 nm (UV/Vis 151, Gilson) and by fluorescence (excitation and emission wavelengths of 344 and 433 nm; RF-10AXL, Shimadzu). Partition coefficients between PBS and octan-1-ol were determined as previously described.
The syntheses of MitoG, its predicted quinoxaline products upon reaction with methylglyoxal and glyoxal, and their deuterated versions are summarized in FIG. 2. As expected, the spectrum of MitoG was a summation of those of the phenylenediamine, hexyloxyphenylenediamine (HP), and a simple alkylTPP salt.
The expected products of the reaction of MitoG with methylglyoxal (MQE) and glyoxal (QE) were synthesized and have UV/Vis absorption spectra distinct from that of MitoG (FIG. 3B). Both QE and MQE were fluorescent, while MitoG was not (FIG. 3C). The three compounds were resolved by RP-HPLC (FIG. 3D) although the MQE regioisomers (MQE1, MQE2; FIG. 1B) were not distinguished. Both MQE and QE were stable after one week at 37° C. as assessed by RP-HPLC (data not shown). It was concluded that MitoG is sufficiently stable for biological experiments involving trapping of glyoxal and methylglyoxal within mitochondria in cells and in vivo, and the reaction products MQE and QE were both robustly stable for chemical isolation and subsequent LC-MS/MS analyses.

Series [2] is described as follows: Partition coefficients between PBS and octan-1-ol. The series is classed as physicochemical. Conditions: means ± SE of 3 determinations. The method, then: as §1
For series [3] the following is noted: 25° C., literature [49]; cited from earlier work.

Structures are written as SMILES.

Consider `Cc1cnc2cc(OCCCCCC[P+](c3ccccc3)(c3ccccc3)c3ccccc3)ccc2n1.O=C([O-])C(F)(F)F` [MQE, (6-(6-(2-Methyl-quinoxalinyloxy))hexyl)triphenylphosphonium trifluoroacetate], for which, in series [1], the “stability after one week” value is recorded as “stable”. Further, the Partition coefficient in series [2] is given as 12.3 ± 0.5.

As to `O=C([O-])C(F)(F)F.c1ccc([P+](CCCCCCOc2ccc3nccnc3c2)(c2ccccc2)c2ccccc2)cc1` [QE, (6-(6-Quinoxalinyloxy)hexyl)triphenylphosphonium trifluoroacetate], the “stability after one week” value in series [1] is “stable”. Further, the logD in series [2] (octan-1-ol/PBS, read-out: Partition coefficient (converted)) was 1.13.

For `Nc1ccccc1N` [o-phenylenediamine], the “rate constant for reaction with methylglyoxal, reported value” in series [3] is 1.7 ± 0.3 M⁻¹ s⁻¹.

The values are drawn from patent publication US9963474B2, “Mitochondria-targeted dicarbonyl sequestering compounds” (MEDICAL RESEARCH COUNCIL, priority 2013, dated 2018).
